Test results: ChEMBL document CHEMBL1201862, “PubChem BioAssay data set” (2004)
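Grown in 96-well plates, cells were treated for 48 hours with each compound at five concentrations. Insufficient inhibition: endpoint recorded as highest concentration tested. GI50 = concentration required for 50% inhibition of growth.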 Active and inactive are the calls of the source. No stated cut-off is given here; in the data, active = GI50 up to about 1.1 µM and inactive = higher.

Columns and labels:
Test in all cases: NCI-60 cell line screen, 48 h
RXF 393 = tested on: RXF 393
UACC-257 = tested on: UACC-257
BT-549 = tested on: BT-549
T47D = tested on: T47D
M14 = tested on: M14
NCI-H23 = tested on: NCI-H23
HCC 2998 = tested on: HCC 2998
LOX IMVI = tested on: LOX IMVI
SF-268 = tested on: SF-268
UO-31 = tested on: UO-31
A498 = tested on: A498
HT-29 = tested on: HT-29
MDA-MB-231 = tested on: MDA-MB-231
OVCAR-8 = tested on: OVCAR-8
SK-MEL-2 = tested on: SK-MEL-2
HCT-116 = tested on: HCT-116
HL-60 = tested on: HL-60
NCI-H226 = tested on: NCI-H226
786-0 = tested on: 786-0
SNB-75 = tested on: SNB-75

SMILES	GI50 (RXF 393)	GI50 (UACC-257)	GI50 (BT-549)	GI50 (T47D)	GI50 (M14)	GI50 (NCI-H23)	GI50 (HCC 2998)	GI50 (LOX IMVI)	GI50 (SF-268)	GI50 (UO-31)	GI50 (A498)	GI50 (HT-29)	GI50 (MDA-MB-231)	GI50 (OVCAR-8)	GI50 (SK-MEL-2)	GI50 (HCT-116)	GI50 (HL-60)	GI50 (NCI-H226)	GI50 (786-0)	GI50 (SNB-75)
CC1NC(C(=O)O)Cc2cc(O)c(O)cc21 (stereo not drawn)	> 100 µM (inactive)	> 100 µM (inactive)	> 100 µM (inactive)	> 100 µM (inactive)	> 100 µM (inactive)	> 100 µM (inactive)	> 100 µM (inactive)	> 100 µM (inactive)	> 100 µM (inactive)	> 100 µM (inactive)	> 100 µM (inactive)	> 100 µM (inactive)	> 100 µM (inactive)	> 100 µM (inactive)	> 100 µM (inactive)	> 100 µM (inactive)	> 100 µM (inactive)	> 100 µM (inactive)	> 100 µM (inactive)	–
COc1cccc2c1C(CO)N1C(C#N)C3CC(C(=O)O)C(C1C2)N3C (stereo not drawn)	1.27 µM (inactive)	1.66 µM (inactive)	0.213 µM (active)	0.324 µM (active)	4.37 µM (inactive)	1.57 µM (inactive)	0.405 µM (active)	1.95 µM (inactive)	1.85 µM (inactive)	1.59 µM (inactive)	2.77 µM (inactive)	1.64 µM (inactive)	0.15 µM (active)	1.68 µM (inactive)	1.21 µM (inactive)	1.69 µM (inactive)	1.52 µM (inactive)	–	1.3 µM (inactive)	1.6 µM (inactive)
COC(=O)[C@H](Cc1c[nH]c2ccccc12)NC(=O)c1ccccc1I	18.7 µM (inactive)	18.8 µM (inactive)	> 100 µM (inactive)	22.6 µM (inactive)	15.7 µM (inactive)	–	26.4 µM (inactive)	19.7 µM (inactive)	19.8 µM (inactive)	19.3 µM (inactive)	18.5 µM (inactive)	23.7 µM (inactive)	29.1 µM (inactive)	31.7 µM (inactive)	19.9 µM (inactive)	16.3 µM (inactive)	24.9 µM (inactive)	26.8 µM (inactive)	16.1 µM (inactive)	11.8 µM (inactive)
COc1ccc(N2/C(=N/c3ccccc3)SC(=N/S(=O)(=O)c3ccccc3)/C2=N\S(=O)(=O)c2ccccc2)cc1	12.8 µM (inactive)	26.8 µM (inactive)	24.3 µM (inactive)	0.298 µM (active)	33.7 µM (inactive)	12.9 µM (inactive)	17.3 µM (inactive)	–	–	19.2 µM (inactive)	20.1 µM (inactive)	19.6 µM (inactive)	14.3 µM (inactive)	18.2 µM (inactive)	–	12.6 µM (inactive)	12.1 µM (inactive)	21.8 µM (inactive)	24.9 µM (inactive)	19.4 µM (inactive)
O=C(/N=C1/NCC(CN2CCN(c3ccccc3)CC2)O1)Nc1ccccc1 (stereo not drawn)	> 100 µM (inactive)	> 100 µM (inactive)	> 100 µM (inactive)	> 100 µM (inactive)	> 100 µM (inactive)	> 100 µM (inactive)	> 100 µM (inactive)	> 100 µM (inactive)	> 100 µM (inactive)	> 100 µM (inactive)	> 100 µM (inactive)	63.8 µM (inactive)	> 100 µM (inactive)	–	> 100 µM (inactive)	> 100 µM (inactive)	> 100 µM (inactive)	> 100 µM (inactive)	> 100 µM (inactive)	–
C(=C\c1cccc(/C=C/c2ccccn2)n1)/c1ccccn1	62.1 µM (inactive)	> 100 µM (inactive)	18.7 µM (inactive)	44.5 µM (inactive)	43.3 µM (inactive)	66.5 µM (inactive)	79.6 µM (inactive)	66.4 µM (inactive)	20.2 µM (inactive)	26.2 µM (inactive)	0.971 µM (active)	56.8 µM (inactive)	> 100 µM (inactive)	36.2 µM (inactive)	> 100 µM (inactive)	68.9 µM (inactive)	72.4 µM (inactive)	> 100 µM (inactive)	> 100 µM (inactive)	37.4 µM (inactive)
c1ccc(CC(Nc2cccnc2)c2ccccc2)cc1 (stereo not drawn)	18.6 µM (inactive)	22 µM (inactive)	25.2 µM (inactive)	28.1 µM (inactive)	17.9 µM (inactive)	26.7 µM (inactive)	21.2 µM (inactive)	16.2 µM (inactive)	40.6 µM (inactive)	19.7 µM (inactive)	34 µM (inactive)	16.4 µM (inactive)	20 µM (inactive)	28.2 µM (inactive)	18.4 µM (inactive)	15.5 µM (inactive)	23.9 µM (inactive)	24.2 µM (inactive)	21.3 µM (inactive)	24.9 µM (inactive)
Cc1nc2c(Cl)cc(Cl)cc2c(Cl)c1CCCl	22.8 µM (inactive)	> 100 µM (inactive)	51.1 µM (inactive)	52.8 µM (inactive)	> 100 µM (inactive)	> 100 µM (inactive)	> 100 µM (inactive)	> 100 µM (inactive)	75.2 µM (inactive)	30.1 µM (inactive)	72.4 µM (inactive)	78.7 µM (inactive)	69.5 µM (inactive)	> 100 µM (inactive)	99.5 µM (inactive)	76 µM (inactive)	55.2 µM (inactive)	> 100 µM (inactive)	> 100 µM (inactive)	42.9 µM (inactive)
COC(=O)c1c(C)cccc1/C=C1\Cc2ccc(C)c(C)c2C1=O	86.5 µM (inactive)	> 100 µM (inactive)	> 100 µM (inactive)	76.7 µM (inactive)	52.4 µM (inactive)	> 100 µM (inactive)	> 100 µM (inactive)	> 100 µM (inactive)	67.5 µM (inactive)	28.8 µM (inactive)	31 µM (inactive)	> 100 µM (inactive)	> 100 µM (inactive)	> 100 µM (inactive)	> 100 µM (inactive)	> 100 µM (inactive)	> 100 µM (inactive)	> 100 µM (inactive)	> 100 µM (inactive)	40.6 µM (inactive)
CN(C)CCNC(=O)c1cc([N+](=O)[O-])ccn1	41.6 µM (inactive)	16.3 µM (inactive)	84.5 µM (inactive)	30.3 µM (inactive)	36.7 µM (inactive)	20.9 µM (inactive)	40 µM (inactive)	30.1 µM (inactive)	28.4 µM (inactive)	> 100 µM (inactive)	> 100 µM (inactive)	11.4 µM (inactive)	25.4 µM (inactive)	27.2 µM (inactive)	24.2 µM (inactive)	24.8 µM (inactive)	20.3 µM (inactive)	> 100 µM (inactive)	42.5 µM (inactive)	> 100 µM (inactive)
CC(=O)Oc1ccc2ccc(=O)oc2c1OC(C)=O	22.7 µM (inactive)	> 100 µM (inactive)	40 µM (inactive)	82.4 µM (inactive)	78 µM (inactive)	32 µM (inactive)	48 µM (inactive)	21.3 µM (inactive)	27.8 µM (inactive)	30.1 µM (inactive)	> 100 µM (inactive)	> 100 µM (inactive)	29.5 µM (inactive)	35.4 µM (inactive)	> 100 µM (inactive)	36.3 µM (inactive)	17.1 µM (inactive)	–	42.1 µM (inactive)	66.5 µM (inactive)
CC(C)(C)c1cc(C(C)(C)C)c(SC2OC(CO)C(O)C(O)C2O)c(O)c1O (stereo not drawn)	0.36 µM (active)	20.9 µM (inactive)	10.6 µM (inactive)	17.6 µM (inactive)	18.3 µM (inactive)	4.42 µM (inactive)	6.22 µM (inactive)	8.95 µM (inactive)	6.97 µM (inactive)	11.4 µM (inactive)	14.7 µM (inactive)	7.1 µM (inactive)	17.8 µM (inactive)	7.62 µM (inactive)	11.1 µM (inactive)	13.1 µM (inactive)	3.27 µM (inactive)	12.3 µM (inactive)	12.7 µM (inactive)	1.55 µM (inactive)
O=c1c2cc(-c3ccccc3)cnc2sn1-c1ccc([N+](=O)[O-])cc1	29.9 µM (inactive)	> 100 µM (inactive)	52.8 µM (inactive)	44.1 µM (inactive)	50.6 µM (inactive)	15.1 µM (inactive)	> 100 µM (inactive)	–	48.2 µM (inactive)	40 µM (inactive)	23.7 µM (inactive)	68.2 µM (inactive)	41.3 µM (inactive)	33.2 µM (inactive)	35.6 µM (inactive)	21.3 µM (inactive)	37.8 µM (inactive)	44.5 µM (inactive)	34.5 µM (inactive)	25.1 µM (inactive)
Nc1nc(Nc2ccccc2)sc1C(=O)c1cccs1	5.93 µM (inactive)	17.7 µM (inactive)	15.2 µM (inactive)	21.2 µM (inactive)	21.1 µM (inactive)	16.2 µM (inactive)	17 µM (inactive)	11.2 µM (inactive)	18.2 µM (inactive)	11.5 µM (inactive)	14.6 µM (inactive)	5.32 µM (inactive)	28.7 µM (inactive)	21.1 µM (inactive)	12.7 µM (inactive)	4.06 µM (inactive)	3.57 µM (inactive)	16.8 µM (inactive)	11.5 µM (inactive)	–
COc1cc2c3c(c1O)C1(C=CC(=O)C=C1)CC3N(C)CC2 (stereo not drawn) [GLAZIOVINE]	6.14 µM (inactive)	13.4 µM (inactive)	5.78 µM (inactive)	11.7 µM (inactive)	12.1 µM (inactive)	11.2 µM (inactive)	12.4 µM (inactive)	2.77 µM (inactive)	11 µM (inactive)	–	17.7 µM (inactive)	8.95 µM (inactive)	4.86 µM (inactive)	10.4 µM (inactive)	10.7 µM (inactive)	3.81 µM (inactive)	2.79 µM (inactive)	22 µM (inactive)	3.17 µM (inactive)	4.57 µM (inactive)
